Results on 22 compounds are retold here after ChEMBL document CHEMBL1147151, “In vitro optimization of non-small cell lung cancer activity with troxacitabine, L-1,3-dioxolane-cytidine, prodrugs” (J Med Chem, 2007).

In one assay the test system is A549. Nature of the assay: Cytotoxicity against A549 cells after 72 hrs by SRB assay. Type of assay: functional, cell-based. Particulars: Homo sapiens, A549, 72 h.
For another assay, the system named is SW1573. Nature of the assay: Cytotoxicity against SW1573 cells after 72 hrs by SRB assay. In kind it is functional, cell-based. Particulars: Homo sapiens, SW1573, 72 h.

In general, IC50 refers to the point on the concentration scale where inhibition reaches its midpoint. Low readings indicate higher potency, high ones lower potency.

SMILES strings stand for the structures.

Consider `CCCCCCCCCCCC(=O)Nc1ccn([C@@H]2CO[C@H](CO)O2)c(=O)n1`, for which the IC50 in the assay with A549 is 0.015 µM; in the assay with SW1573, 0.03 µM.

For `CC(=O)Nc1ccn([C@@H]2CO[C@H](CO)O2)c(=O)n1`, the values for the IC50 with A549 and in the assay on SW1573 were 6.87 µM and 10.7 µM, respectively.

As to `O=C(Nc1ccn([C@@H]2CO[C@H](CO)O2)c(=O)n1)c1ccc(F)cc1`, the 50% inhibitory concentration (IC50) in the assay with A549 amounted to 8.67 µM; in the assay on SW1573, 15.3 µM.

Regarding `O=C(Nc1ccn([C@@H]2CO[C@H](CO)O2)c(=O)n1)c1ccc(Cl)cc1`, the results for the IC50 in the assay on A549 and in the assay with SW1573 were 0.41 µM and 2.77 µM, respectively.

As for `CCCCCCC(=O)Nc1ccn([C@@H]2CO[C@H](CO)O2)c(=O)n1`, the IC50 was found to be 1.04 µM in the assay with A549 and 2.4 µM in the assay with SW1573.

`O=C(Nc1ccn([C@@H]2CO[C@H](CO)O2)c(=O)n1)c1ccc(Br)cc1`: the IC50 in the assay on A549 was determined as 4.53 µM; with SW1573, 8.87 µM.

As to `O=C(Nc1ccn([C@@H]2CO[C@H](CO)O2)c(=O)n1)C1CCCC1`, the IC50 in the assay on A549 came to 2.97 µM; in the assay on SW1573 it was 8.8 µM.

Turning to `O=C(Nc1ccn([C@@H]2CO[C@H](CO)O2)c(=O)n1)c1ccc(Cl)cc1Cl`, the IC50 in the assay on A549 came to 9.83 µM; in the assay on SW1573, 14.3 µM.

Regarding `O=C(Nc1ccn([C@@H]2CO[C@H](CO)O2)c(=O)n1)C1CC1`, the IC50 in the assay with A549 turned out to be 18.7 µM; in the assay on SW1573, 22 µM.

For `O=C(Nc1ccn([C@@H]2CO[C@H](CO)O2)c(=O)n1)c1ccccc1`, the IC50 stood at 8.53 µM in the assay on A549 and 13.7 µM in the assay with SW1573.

With `CCCCCCCCCCCCCCCC(=O)Nc1ccn([C@@H]2CO[C@H](CO)O2)c(=O)n1`, the IC50 was found to be 0.004 µM in the assay with A549 and 0.02 µM in the assay with SW1573.

Take `CCCCCCCCCCCCCCCCCCCC(=O)Nc1ccn([C@@H]2CO[C@H](CO)O2)c(=O)n1`: the figures for the IC50 in the assay on A549 and with SW1573 were 0.03 µM and 0.15 µM, respectively.

On to `CCCC(=O)Nc1ccn([C@@H]2CO[C@H](CO)O2)c(=O)n1`, for which the IC50 in the assay on A549 was found to be 6.6 µM; with SW1573, 8.07 µM.

As to `CCCCCCCCCCCCCCCCCC(=O)Nc1ccn([C@@H]2CO[C@H](CO)O2)c(=O)n1`, the IC50 in the assay on A549 is 0.025 µM; in the assay on SW1573, 0.125 µM.

Turning to `CCCCC(=O)Nc1ccn([C@@H]2CO[C@H](CO)O2)c(=O)n1`, the IC50 in the assay with A549 amounted to 5.23 µM; in the assay on SW1573, 9.13 µM.

Take `CCCCCCCCC(=O)Nc1ccn([C@@H]2CO[C@H](CO)O2)c(=O)n1`: the values for the IC50 in the assay with A549 and with SW1573 were 0.046 µM and 0.276 µM, respectively.

`O=C(Nc1ccn([C@@H]2CO[C@H](CO)O2)c(=O)n1)C1CCCCC1`: the figures for the IC50 with A549 and in the assay on SW1573 were 7.37 µM and 14 µM, respectively.

Regarding `COc1ccc(C(=O)Nc2ccn([C@@H]3CO[C@H](CO)O3)c(=O)n2)cc1`, the values for the IC50 in the assay on A549 and in the assay on SW1573 were 3.5 µM and 10 µM, respectively.

In the case of `CCCCCCCCCCCCCCCCCCCCCC(=O)Nc1ccn([C@@H]2CO[C@H](CO)O2)c(=O)n1`, the results for the IC50 with A549 and in the assay with SW1573 were 0.5 µM and 0.9 µM, respectively.

Take `CCCCCCCCCC(=O)Nc1ccn([C@@H]2CO[C@H](CO)O2)c(=O)n1`: the IC50 worked out at 0.024 µM in the assay on A549 and 0.04 µM in the assay on SW1573.

As for `Nc1ccn([C@@H]2O[C@H](CO)[C@@H](O)C2(F)F)c(=O)n1` [GEMCITABINE], the results for the IC50 in the assay on A549 and in the assay with SW1573 were 13.1 µM and 8.3 µM, respectively.

For the compound `Nc1ccn([C@@H]2CO[C@H](CO)O2)c(=O)n1` [TROXACITABINE], the IC50 in the assay on A549 was 0.68 µM; with SW1573, 2.3 µM.
